*1 amine or outer side, *2 acyl side, *3 side chain or, on linkers, in order; H or OH if unused. Where a SMILES comes first, the peptide text is derived from it. Bridges are numbered along the chain shown (N, C = ends). Roman numbers before positions name the chains, in order. [ ]: non-standard residue; d: D form. Actinocin(1to9) = Cc1c2oc3c(C)ccc(C(=O)[*:2])c3nc-2c(C(=O)[*:1])c(N)c1=O; NMeV = CN[C@H](C(=O)O)C(C)C; Sar = CNCC(=O)O
How the values were obtained:
Calf thymus DNA = experiment: Binding affinity to calf thymus DNA at 5.2 x 10^-6 M by CD spectra analysis; format: nucleic-acid assay; conditions: Bos taurus
L1210 [1] = experiment: Inhibition of DNA synthesis in mouse L1210 cells by [3H]-thymidine incorporation assay; format: functional; conditions: read-out: ED50 (the source's name)
L1210 [2] = experiment: Inhibition of RNA synthesis in mouse L1210 cells by [3H]-uridine incorporation assay; format: functional; conditions: read-out: ED50 (the source's name)

| SMILES | ΔTm (Calf thymus DNA) [°C] | EC50 (L1210 [1]) [nM] | EC50 (L1210 [2]) [nM] |
| --- | --- | --- | --- |
| Cc1c2oc3c(C)ccc(C(=O)N[C@@H]4C(=O)N[C@H](C(C)C)C(=O)N5CCC[C@H]5C(=O)N(C)CC(=O)N(C)[C@@H](C(C)C)C(=O)O[C@@H]4C)c3nc-2c(C(=O)N[C@@H]2C(=O)N[C@H](C(C)C)C(=O)N3CCC[C@H]3C(=O)N(C)CC(=O)N(C)[C@@H](C(C)C)C(=O)O[C@@H]2C)cc1=O | 9.9 | 63000 | 700 |
| Cc1c2oc3c(C)ccc(C(=O)N[C@@H]4C(=O)N[C@H](C(C)C)C(=O)N5CCC[C@H]5C(=O)N(C)CC(=O)N(C)[C@@H](C(C)C)C(=O)O[C@@H]4C)c3nc-2c(C(=O)N[C@@H]2C(=O)N[C@H](C(C)C)C(=O)N3CCC[C@H]3C(=O)N(C)CC(=O)N(C)[C@@H](C(C)C)C(=O)O[C@@H]2C)c(N)c1=O [DACTINOMYCIN] (I: T[dV]P[Sar][NMeV] / II: T[dV]P[Sar][NMeV]; ester I:1-I:C, II:1-II:C; linker I:N-II:N via Actinocin(1to9)) | 7.1 | 600 | 15 |
| Cc1ccc(C(=O)N[C@@H]2C(=O)N[C@H](C(C)C)C(=O)N3CCC[C@H]3C(=O)N(C)CC(=O)N(C)[C@@H](C(C)C)C(=O)O[C@@H]2C)c2nc3c(C(=O)N[C@@H]4C(=O)N[C@H](C(C)C)C(=O)N5CCC[C@H]5C(=O)N(C)CC(=O)N(C)[C@@H](C(C)C)C(=O)O[C@@H]4C)cccc3nc12 | 3.4 | 9200 | 230 |

From ChEMBL document CHEMBL3244413, “A phenazine analogue of actinomycin D” (1979)
